From US6960574B2, “Antagonists of RF-amide neuropeptides” (University of Florida, priority 2002, dated 2005)
Square brackets hold non-standard residues; d marks the D form. Peptide text beside a SMILES is read from it. * marks the point of attachment. ξ: configuration not given here. Dansyl = CN(C)c1cccc2c(S(=O)(=O)*)cccc12; ξL = CC(C)CC(N)C(=O)O

Each compound was assayed on receptor labeled by the radioiodinated analogue of 1 (4, [125I]-YLFQPQRF-NH2); neuropeptide FF receptor (assay: Competitive radioligand binding against 4 ([125I]Y8F-amide)). Settings: mixture-based positional scanning; difference from averaged radioligand displacement of whole library (0); about 80 a.u. = 10-fold change in Ki.
From the text: Additionally, three-dimensional (3-D) molecular models of the known smaller-size neuropeptide FF antagonists 3 and 3a were constructed and their low-energy conformations were obtained in the AMBER force-field [Weiner, et al., J. Comput. Chem. 1986, 7, […].] by molecular dynamics calculations involving simulated annealing. A semi-empirical quantum chemical method with the PM3 parameterization [Stewart, J. Comput. Chem. 1989, 10, 209-220.] was used for the final geometry optimization. […] At least one of the rings in domain B is aromatic. No similarity between 3 and 3a outside these domains were apparent; therefore, the simultaneous presence of A and B domains in the structure of neuropeptide FF (1) antagonists is critical to the invention. Apparently, structural subunits (domain C) outside domains A and B should function in a cooperative manner in directing the pharmacophores into proper geometric positions when improved binding to the cognate receptor is to be obtained, which is associated with the improvement of the desired pharmacological effect. An approach involving mixture-based synthetic combinatorial libraries and positional scanning [(a) Houghten, et al., J. Med Chem. 1999, 42, 3743-3778.] was adopted in the search for preferred structural motifs in domain C that assist in achieving this objective in this invention. To allow for the use of 3 as a reference in this process, the guadinino group (A) was incorporated as part of an L-2-amino-5-{[amino(imino)methyl]amino}pentanoyl (arginyl, R, Arg) residue and 5-dimethylamino-1-naphthalenesulphonyl (dansyl) was chosen to form B (However, it must be emphasized that both R and dansyl are replaceable with moieties that bestow A and B domain attributes described in the invention).
Upon screening for residues to replace the glutamine of 3, serine (S) was the only building block in this position that increased the displacement of 4 in the radioligand-binding assay. Therefore, motifs present in dansyl-Gly-Ser-Arg-NH2, dansyl-Gly-Gln-Arg-NH2, dansyl-Gln-Ser-Arg-NH2, and dansyl-Gln-Gln-Arg-NH2 were chosen based on their affinity to the cognate receptor for further consideration as primary templates when designing the domain C of the compounds described in the invention herein. […]

SMILES | Relative Binding Index (RBI) [a.u.]
CN(C)c1cccc2c(S(=O)(=O)N[C@@H](Cc3ccccc3)C(=O)N3CCC[C@H]3C(=O)N[C@@H](CCCNC(=N)N)C(N)=O)cccc12 [Dansyl-FPR-amide] | 13
CN(C)c1cccc2c(S(=O)(=O)N[C@@H](Cc3ccccc3)C(=O)N[C@@H](Cc3c[nH]c4ccccc34)C(=O)N[C@@H](CCCNC(=N)N)C(N)=O)cccc12 [Dansyl-FWR-amide] (Dansyl-Phe-Trp-Arg-NH2) | 18
C[C@H](NC(=O)CNS(=O)(=O)c1cccc2c(N(C)C)cccc12)C(=O)N[C@@H](CCCNC(=N)N)C(N)=O [Dansyl-GAR-amide] (Dansyl-Gly-Ala-Arg-NH2) | −24
CN(C)c1cccc2c(S(=O)(=O)NCC(=O)N[C@@H](CC(=O)O)C(=O)N[C@@H](CCCNC(=N)N)C(N)=O)cccc12 [Dansyl-GDR-amide] (Dansyl-Gly-Asp-Arg-NH2) | 7
CN(C)c1cccc2c(S(=O)(=O)NCC(=O)N[C@@H](CCC(=O)O)C(=O)N[C@@H](CCCNC(=N)N)C(N)=O)cccc12 [Dansyl-GER-amide] (Dansyl-Gly-Glu-Arg-NH2) | 25
CN(C)c1cccc2c(S(=O)(=O)NCC(=O)NCC(=O)N[C@@H](CCCNC(=N)N)C(N)=O)cccc12 [Dansyl-GGR-amide] | 30
CN(C)c1cccc2c(S(=O)(=O)NCC(=O)N[C@@H](Cc3c[nH]cn3)C(=O)N[C@@H](CCCNC(=N)N)C(N)=O)cccc12 [Dansyl-GHR-amide] (Dansyl-Gly-His-Arg-NH2) | 19
CC[C@H](C)[C@H](NC(=O)CNS(=O)(=O)c1cccc2c(N(C)C)cccc12)C(=O)N[C@@H](CCCNC(=N)N)C(N)=O [Dansyl-GIR-amide] (Dansyl-Gly-Ile-Arg-NH2) | 32
CN(C)c1cccc2c(S(=O)(=O)NCC(=O)N[C@@H](CCCCN)C(=O)N[C@@H](CCCNC(=N)N)C(N)=O)cccc12 [Dansyl-GKR-amide] (Dansyl-Gly-Lys-Arg-NH2) | 23
CC(C)C[C@H](NC(=O)CNS(=O)(=O)c1cccc2c(N(C)C)cccc12)C(=O)N[C@@H](CCCNC(=N)N)C(N)=O [Dansyl-GLR-amide] (Dansyl-Gly-Leu-Arg-NH2) | 17
CSCC[C@H](NC(=O)CNS(=O)(=O)c1cccc2c(N(C)C)cccc12)C(=O)N[C@@H](CCCNC(=N)N)C(N)=O [Dansyl-GMR-amide] (Dansyl-Gly-Met-Arg-NH2) | 25
CN(C)c1cccc2c(S(=O)(=O)NCC(=O)N[C@@H](CC(N)=O)C(=O)N[C@@H](CCCNC(=N)N)C(N)=O)cccc12 [Dansyl-GNR-amide] (Dansyl-Gly-Asn-Arg-NH2) | 26
CN(C)c1cccc2c(S(=O)(=O)NCC(=O)N3CCC[C@H]3C(=O)N[C@@H](CCCNC(=N)N)C(N)=O)cccc12 [Dansyl-GPR-amide] (Dansyl-Gly-Pro-Arg-NH2) | 28
CN(C)c1cccc2c(S(=O)(=O)NCC(=O)N[C@@H](CCC(N)=O)C(=O)N[C@@H](CCCNC(=N)N)C(N)=O)cccc12 [Dansyl-GQR-amide, dansyl-Gly-Gln-Arg-NH2] (Dansyl-Gly-Gln-Arg-NH2) | 39
CN(C)c1cccc2c(S(=O)(=O)NCC(=O)N[C@@H](CCCNC(=N)N)C(=O)N[C@@H](CCCNC(=N)N)C(N)=O)cccc12 [Dansyl-GRR-amide] | 24
C[C@@H](O)[C@H](NC(=O)CNS(=O)(=O)c1cccc2c(N(C)C)cccc12)C(=O)N[C@@H](CCCNC(=N)N)C(N)=O [Dansyl-GTR-amide] (Dansyl-Gly-Thr-Arg-NH2) | 31
CC(C)[C@H](NC(=O)CNS(=O)(=O)c1cccc2c(N(C)C)cccc12)C(=O)N[C@@H](CCCNC(=N)N)C(N)=O [Dansyl-GVR-amide] (Dansyl-Gly-Val-Arg-NH2) | 20
CN(C)c1cccc2c(S(=O)(=O)NCC(=O)N[C@@H](Cc3c[nH]c4ccccc34)C(=O)N[C@@H](CCCNC(=N)N)C(N)=O)cccc12 [Dansyl-GWR-amide] (Dansyl-Gly-Trp-Arg-NH2) | 34
CN(C)c1cccc2c(S(=O)(=O)NCC(=O)N[C@@H](Cc3ccc(O)cc3)C(=O)N[C@@H](CCCNC(=N)N)C(N)=O)cccc12 [Dansyl-GYR-amide] (Dansyl-Gly-Tyr-Arg-NH2) | 24
C[C@H](NC(=O)[C@H](Cc1c[nH]cn1)NS(=O)(=O)c1cccc2c(N(C)C)cccc12)C(=O)N[C@@H](CCCNC(=N)N)C(N)=O [Dansyl-HAR-amide] (Dansyl-His-Ala-Arg-NH2) | −32

Second part, the compound after the results:

Relative Binding Index (RBI) [a.u.] | SMILES
9 | CN(C)c1cccc2c(S(=O)(=O)N[C@@H](Cc3ccccc3)C(=O)N[C@@H](CCC(=O)O)C(=O)N[C@@H](CCCNC(=N)N)C(N)=O)cccc12 [Dansyl-FER-amide] (Dansyl-Phe-Glu-Arg-NH2)
8 | CN(C)c1cccc2c(S(=O)(=O)N[C@@H](Cc3ccccc3)C(=O)N[C@@H](Cc3ccccc3)C(=O)N[C@@H](CCCNC(=N)N)C(N)=O)cccc12 [Dansyl-FFR-amide] (Dansyl-Phe-Phe-Arg-NH2)
15 | CN(C)c1cccc2c(S(=O)(=O)N[C@@H](Cc3ccccc3)C(=O)NCC(=O)N[C@@H](CCCNC(=N)N)C(N)=O)cccc12 [Dansyl-FGR-amide] (Dansyl-Phe-Gly-Arg-NH2)
4 | CN(C)c1cccc2c(S(=O)(=O)N[C@@H](Cc3ccccc3)C(=O)N[C@@H](Cc3cnc[nH]3)C(=O)N[C@@H](CCCNC(=N)N)C(N)=O)cccc12 [Dansyl-FHR-amide] (Dansyl-Phe-His-Arg-NH2)
16 | CCC(C)C(NC(=O)C(Cc1ccccc1)NS(=O)(=O)c1cccc2c(N(C)C)cccc12)C(=O)NC(CCCNC(=N)N)C(N)=O (stereo not drawn) [Dansyl-FIR-amide] (Dansyl-Phe-Ile-Arg-NH2; configuration not given here)
7 | CN(C)c1cccc2c(S(=O)(=O)N[C@@H](Cc3ccccc3)C(=O)N[C@@H](CCCCN)C(=O)N[C@@H](CCCNC(=N)N)C(N)=O)cccc12 [Dansyl-FKR-amide] (Dansyl-Phe-Lys-Arg-NH2)
1 | CC(C)CC(NC(=O)[C@H](Cc1ccccc1)NS(=O)(=O)c1cccc2c(N(C)C)cccc12)C(=O)N[C@@H](CCCNC(=N)N)C(N)=O (stereo partly drawn) [Dansyl-FLR-amide] (Dansyl-Phe-[ξL]-Arg-NH2)
9 | CSCC[C@H](NC(=O)[C@H](Cc1ccccc1)NS(=O)(=O)c1cccc2c(N(C)C)cccc12)C(=O)N[C@@H](CCCNC(=N)N)C(N)=O [Dansyl-FMR-amide] (Dansyl-Phe-Met-Arg-NH2)
11 | CN(C)c1cccc2c(S(=O)(=O)N[C@@H](Cc3ccccc3)C(=O)N[C@@H](CC(N)=O)C(=O)N[C@@H](CCCNC(=N)N)C(N)=O)cccc12 [Dansyl-FNR-amide] (Dansyl-Phe-Asn-Arg-NH2)
23 | CN(C)c1cccc2c(S(=O)(=O)N[C@@H](Cc3ccccc3)C(=O)N[C@@H](CCC(N)=O)C(=O)N[C@@H](CCCNC(=N)N)C(N)=O)cccc12 [Dansyl-FQR-amide] (Dansyl-Phe-Gln-Arg-NH2)
8 | CN(C)c1cccc2c(S(=O)(=O)N[C@@H](Cc3ccccc3)C(=O)N[C@@H](CCCNC(=N)N)C(=O)N[C@@H](CCCNC(=N)N)C(N)=O)cccc12 [Dansyl-FRR-amide] (Dansyl-Phe-Arg-Arg-NH2)
30 | CN(C)c1cccc2c(S(=O)(=O)N[C@@H](Cc3ccccc3)C(=O)N[C@@H](CO)C(=O)N[C@@H](CCCNC(=N)N)C(N)=O)cccc12 [Dansyl-FSR-amide] (Dansyl-Phe-Ser-Arg-NH2)
15 | C[C@@H](O)[C@H](NC(=O)[C@H](Cc1ccccc1)NS(=O)(=O)c1cccc2c(N(C)C)cccc12)C(=O)N[C@@H](CCCNC(=N)N)C(N)=O [Dansyl-FTR-amide] (Dansyl-Phe-Thr-Arg-NH2)
5 | CC(C)[C@H](NC(=O)[C@H](Cc1ccccc1)NS(=O)(=O)c1cccc2c(N(C)C)cccc12)C(=O)N[C@@H](CCCNC(=N)N)C(N)=O [Dansyl-FVR-amide] (Dansyl-Phe-Val-Arg-NH2)
8 | CN(C)c1cccc2c(S(=O)(=O)N[C@@H](Cc3ccccc3)C(=O)N[C@@H](Cc3ccc(O)cc3)C(=O)N[C@@H](CCCNC(=N)N)C(N)=O)cccc12 [Dansyl-FYR-amide] (Dansyl-Phe-Tyr-Arg-NH2)
24 | CN(C)c1cccc2c(S(=O)(=O)NCC(=O)N[C@@H](Cc3ccccc3)C(=O)N[C@@H](CCCNC(=N)N)C(N)=O)cccc12 [Dansyl-GFR-amide] (Dansyl-Gly-Phe-Arg-NH2)
